Tests used:
Assay type in all cases: in vivo
Glioblastoma 105 GSC = assay: 124I-CLR1404 tumor uptake, model 34; conditions: NOD-SCID mouse (orthotopic), Glioma
Procedure: (§1) All described animal studies were performed according to animal protocols approved by the Institutional Animal Care and Use Committee. Female athymic nude mice (Hsd:Athymic Nude-Foxnlnu or Crl:NU-Foxnlnu, Charles River Laboratories) about 4 to 5 weeks of age, 16 to 18 g (n=6), were used for human tumor xenograft studies. Mice were anesthetized with isoflurane and injected subcutaneously with viable tumor cells in 100 μl of Dulbecco's PBS (or, for glioma cells, […] of PBS) into the right flank. Inoculum sizes were 1×10^6 (for renal, ovarian, glioma, pancreatic, prostate, and NSCLC models), […] (for colorectal and uterine models), or 3×10^6 (breast).
(§2) Radioiodinated ^124I-CLR1404 was tested in subcutaneous and orthotopic xenografts of 60 different spontaneous, transgenic, human, and rodent malignant cell lines and tumor types. […] Representative examples are of both human (FIG. 5A-5I) and rodent (FIG. 5J-M) tumors.

Glioma C6 = assay: 124I-CLR1404 tumor uptake, model 48; conditions: Rat xenograft
Procedure: as §1, §2

Breast MCF-7 = assay: 124I-CLR1404 tumor uptake, model 30; conditions: Rat, Adenocarcinoma
Procedure: as §1, §2

Colon HT-29 = assay: 124I-CLR1404 tumor uptake, model 9; conditions: SCID mouse, Adenocarcinoma
Procedure: as §1, §2

Bladder SV40 = assay: 124I-CLR1404 tumor uptake, model 36; conditions: Mouse (orthotopic), Adenocarcinoma
Procedure: as §1, §2

Hepatoma Hep-G2 = assay: 124I-CLR1404 tumor uptake, model 59; conditions: Nude mouse, Carcinoma
Procedure: as §1, §2

Renal cell ACHN = assay: 124I-CLR1404 tumor uptake, model 24; conditions: Nude mouse (orthotopic), Adenocarcinoma
Procedure: as §1, §2

Pancreatic c-myc = assay: 124I-CLR1404 tumor uptake, model 52; conditions: Endogenous mouse, Adenocarcinoma
Procedure: as §1, §2

Neuroblastoma NB1691 = assay: 124I-CLR1404 tumor uptake, model 15; conditions: Nude mouse
Procedure: as §1, §2

Uterine MES SA/Dx5 = assay: 124I-CLR1404 tumor uptake, model 32; conditions: Nude mouse, Sarcoma
Procedure: as §1, §2

[1] = tested on: Triple negative breast MDA-MB231; assay: 124I-CLR1404 tumor uptake, model 31; conditions: Nude mouse, Adenocarcinoma
Procedure: as §1, §2

Sarcoma (Meth-A) = assay: 124I-CLR1404 tumor uptake, model 25; conditions: Nude mouse, Fibrosarcoma
Procedure: as §1, §2

Cervical-HPV = assay: 124I-CLR1404 tumor uptake, model 54; conditions: Endogenous mouse, Adenocarcinoma
Procedure: as §1, §2

Hepatocellular carcinoma = assay: 124I-CLR1404 tumor uptake, model 46; conditions: Endogenous mouse, Adenocarcinoma
Procedure: as §1, §2

Prostate PC-3 = assay: 124I-CLR1404 tumor uptake, model 1; conditions: SCID mouse, Adenocarcinoma
Procedure: as §1, §2

Retinoblastoma = assay: 124I-CLR1404 tumor uptake, model 51; conditions: Endogenous mouse, Blastoma
Procedure: as §1, §2

Prostate MatLyLu = assay: 124I-CLR1404 tumor uptake, model 37; conditions: Rat, Adenocarcinoma
Procedure: as §1, §2

Hepatoma Hep-3B = assay: 124I-CLR1404 tumor uptake, model 58; conditions: Nude mouse, Carcinoma
Procedure: as §1, §2

Prostate LuCap = assay: 124I-CLR1404 tumor uptake, model 29; conditions: Mouse, Adenocarcinoma
Procedure: as §1, §2

Colon-51 = assay: 124I-CLR1404 tumor uptake, model 6; conditions: SCID mouse, Adenocarcinoma
Procedure: as §1, §2

Adrenal RL-251 = assay: 124I-CLR1404 tumor uptake, model 5; conditions: SCID mouse, Adenocarcinoma
Procedure: as §1, §2

Esophageal = assay: 124I-CLR1404 tumor uptake, model 55; conditions: Endogenous Mouse, Adenocarcinoma
Procedure: as §1, §2

Ovarian HTB-77 = assay: 124I-CLR1404 tumor uptake, model 18; conditions: Nude mouse, Adenocarcinoma
Procedure: as §1, §2

Pancreatic Capan-1 = assay: 124I-CLR1404 tumor uptake, model 22; conditions: Nude mouse, Adenocarcinoma
Procedure: as §1, §2

Colon CT26 = assay: 124I-CLR1404 tumor uptake, model 40; conditions: SCID mouse, Adenocarcinoma
Procedure: as §1, §2

Ovarian Ovcar-3 = assay: 124I-CLR1404 tumor uptake, model 19; conditions: Nude mouse, Adenocarcinoma
Procedure: as §1, §2

Lung A-549 (NSCLC) = assay: 124I-CLR1404 tumor uptake, model 2; conditions: SCID mouse, Adenocarcinoma
Procedure: as §1, §2

Head and neck SCC6 = assay: 124I-CLR1404 tumor uptake, model 27; conditions: Nude mouse, Squamous cell carcinoma
Procedure: as §1, §2

Glioma CNS1 = assay: 124I-CLR1404 tumor uptake, model 49; conditions: Rat xenograft
Procedure: as §1, §2

Pirc rat colon adenoma = assay: 124I-CLR1404 tumor uptake, model 60
Procedure: as §1, §2

Colon Pirc = assay: 124I-CLR1404 tumor uptake, model 41; conditions: Autochthonous Pirc rat, Adenocarcinoma
Procedure: as §1, §2

Glioblastoma 22 GSC = assay: 124I-CLR1404 tumor uptake, model 33; conditions: NOD-SCID mouse (orthotopic), Glioma
Procedure: as §1, §2

Mammary SCC = assay: 124I-CLR1404 tumor uptake, model 44; conditions: ApcMin/+ mouse, Squamous cell carcinoma
Procedure: as §1, §2

Melanoma = assay: 124I-CLR1404 tumor uptake, model 43; conditions: Mouse
Procedure: as §1, §2

TRAMP prostate = assay: 124I-CLR1404 tumor uptake, model 39; conditions: Endogenous mouse, Adenocarcinoma
Procedure: as §1, §2

Prostate LNCap = assay: 124I-CLR1404 tumor uptake, model 28; conditions: Mouse, Adenocarcinoma
Procedure: as §1, §2

Intestinal polyp = assay: 124I-CLR1404 tumor uptake, model 56; conditions: Endogenous mouse, Adenoma (benign)
Procedure: as §1, §2

Mammary AC = assay: 124I-CLR1404 tumor uptake, model 45; conditions: ApcMin/+ mouse, Adenocarcinoma
Procedure: as §1, §2

Glioma RG2 = assay: 124I-CLR1404 tumor uptake, model 50; conditions: Rat xenograft
Procedure: as §1, §2

Head and neck SCC1 = assay: 124I-CLR1404 tumor uptake, model 26; conditions: Nude mouse, Squamous cell carcinoma
Procedure: as §1, §2

Multiple myeloma MM.1S = assay: 124I-CLR1404 tumor uptake, model 13; conditions: Nude mouse
Procedure: as §1, §2

Neuroblastoma Lan5 = assay: 124I-CLR1404 tumor uptake, model 17; conditions: Nude mouse
Procedure: as §1, §2

Glioblastoma U87 = assay: 124I-CLR1404 tumor uptake, model 11; conditions: Nude mouse and NOD-SCID, Glioma
Procedure: as §1, §2

Walker256 = assay: 124I-CLR1404 tumor uptake, model 38; conditions: Rat, Carcinosarcoma
Procedure: as §1, §2

[2] = tested on: Mammary alveolar hyperplasia; assay: 124I-CLR1404 tumor uptake, model 57; conditions: Endogenous mouse, Hyperplasia (benign)
Procedure: as §1, §2

C[N+](C)(C)CCOP(=O)([O-])OCCCCCCCCCCCCCCCCCCc1ccc(I)cc1 [^124I-CLR1404]
Uptake (Glioblastoma 105 GSC): Yes (Tumor uptake was considered positive if tumor to muscle ratio was greater than 3.) | Uptake (Glioma C6): Yes (Tumor uptake was considered positive if tumor to muscle ratio was greater than 3.) | Uptake (Breast MCF-7): Yes (Tumor uptake was considered positive if tumor to muscle ratio was greater than 3.) | Uptake (Colon HT-29): Yes (Tumor uptake was considered positive if tumor to muscle ratio was greater than 3.) | Uptake (Bladder SV40): Yes (Tumor uptake was considered positive if tumor to muscle ratio was greater than 3.) | Uptake (Hepatoma Hep-G2): No (Tumor:muscle ratio less than or equal to 2 was considered negative.) | Uptake (Renal cell ACHN): Yes (Tumor uptake was considered positive if tumor to muscle ratio was greater than 3.) | Uptake (Pancreatic c-myc): Yes (Tumor uptake was considered positive if tumor to muscle ratio was greater than 3.) | Uptake (Neuroblastoma NB1691): Yes (Tumor uptake was considered positive if tumor to muscle ratio was greater than 3.) | Uptake (Uterine MES SA/Dx5): Yes (Tumor uptake was considered positive if tumor to muscle ratio was greater than 3.) | Uptake [1]: Yes (Tumor uptake was considered positive if tumor to muscle ratio was greater than 3.) | Uptake (Sarcoma (Meth-A)): Yes (Tumor uptake was considered positive if tumor to muscle ratio was greater than 3.) | Uptake (Cervical-HPV): Yes (Tumor uptake was considered positive if tumor to muscle ratio was greater than 3.) | Uptake (Hepatocellular carcinoma): Yes (Tumor uptake was considered positive if tumor to muscle ratio was greater than 3.) | Uptake (Prostate PC-3): Yes (Tumor uptake was considered positive if tumor to muscle ratio was greater than 3.) | Uptake (Retinoblastoma): Yes (Tumor uptake was considered positive if tumor to muscle ratio was greater than 3.) | Uptake (Prostate MatLyLu): Yes (Tumor uptake was considered positive if tumor to muscle ratio was greater than 3.) | Uptake (Hepatoma Hep-3B): No (Tumor:muscle ratio less than or equal to 2 was considered negative.) | Uptake (Prostate LuCap): Yes (Tumor uptake was considered positive if tumor to muscle ratio was greater than 3.) | Uptake (Colon-51): Yes (Tumor uptake was considered positive if tumor to muscle ratio was greater than 3.) | Uptake (Adrenal RL-251): Yes (Tumor uptake was considered positive if tumor to muscle ratio was greater than 3.) | Uptake (Esophageal): Yes (Tumor uptake was considered positive if tumor to muscle ratio was greater than 3.) | Uptake (Ovarian HTB-77): Yes (Tumor uptake was considered positive if tumor to muscle ratio was greater than 3.) | Uptake (Pancreatic Capan-1): Yes (Tumor uptake was considered positive if tumor to muscle ratio was greater than 3.) | Uptake (Colon CT26): Yes (Tumor uptake was considered positive if tumor to muscle ratio was greater than 3.) | Uptake (Ovarian Ovcar-3): Yes (Tumor uptake was considered positive if tumor to muscle ratio was greater than 3.) | Uptake (Lung A-549 (NSCLC)): Yes (Tumor uptake was considered positive if tumor to muscle ratio was greater than 3.) | Uptake (Head and neck SCC6): Yes (Tumor uptake was considered positive if tumor to muscle ratio was greater than 3.) | Uptake (Glioma CNS1): Yes (Tumor uptake was considered positive if tumor to muscle ratio was greater than 3.) | Uptake (Pirc rat colon adenoma): No (Tumor:muscle ratio less than or equal to 2 was considered negative.) | Uptake (Colon Pirc): Yes (Tumor uptake was considered positive if tumor to muscle ratio was greater than 3.) | Uptake (Glioblastoma 22 GSC): Yes (Tumor uptake was considered positive if tumor to muscle ratio was greater than 3.) | Uptake (Mammary SCC): Yes (Tumor uptake was considered positive if tumor to muscle ratio was greater than 3.) | Uptake (Melanoma): Yes (Tumor uptake was considered positive if tumor to muscle ratio was greater than 3.) | Uptake (TRAMP prostate): Yes (Tumor uptake was considered positive if tumor to muscle ratio was greater than 3.) | Uptake (Prostate LNCap): Yes (Tumor uptake was considered positive if tumor to muscle ratio was greater than 3.) | Uptake (Intestinal polyp): No (Tumor:muscle ratio less than or equal to 2 was considered negative.) | Uptake (Mammary AC): Yes (Tumor uptake was considered positive if tumor to muscle ratio was greater than 3.) | Uptake (Glioma RG2): Yes (Tumor uptake was considered positive if tumor to muscle ratio was greater than 3.) | Uptake (Head and neck SCC1): Yes (Tumor uptake was considered positive if tumor to muscle ratio was greater than 3.) | Uptake (Multiple myeloma MM.1S): Yes (Tumor uptake was considered positive if tumor to muscle ratio was greater than 3.) | Uptake (Neuroblastoma Lan5): Yes (Tumor uptake was considered positive if tumor to muscle ratio was greater than 3.) | Uptake (Glioblastoma U87): Yes (Tumor uptake was considered positive if tumor to muscle ratio was greater than 3.) | Uptake (Walker256): Yes (Tumor uptake was considered positive if tumor to muscle ratio was greater than 3.) | Uptake [2]: No (Tumor:muscle ratio less than or equal to 2 was considered negative.)
